Assay results published in ChEMBL document CHEMBL1201862, “PubChem BioAssay data set” (2004).
Active and inactive are the calls of the source.

Experiments:
[1] = target: Glyceraldehyde-3-phosphate dehydrogenase (Homo sapiens, UniProt P04406)
[2] = cytotoxicity in HEK-293T cells, dose response, cytotoxicity control for BCR NF-kB inhibitor project, luminescence, B-cell screen hits (AID 489021); assay type: functional, cell-based;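 also: HEK-293T cells carrying an NF-kB luciferase reporter; cells exposed to compound for about 14 hours before viability readout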
[3] = target: T1, Calpain-2 catalytic subunit (Sus scrofa, UniProt P43367); assay: pig calpain II inhibitor potency, dose response, biochemical, fluorogenic peptide substrate (AID 1420); assay type: functional
T1 sequence (P43367 whole entry): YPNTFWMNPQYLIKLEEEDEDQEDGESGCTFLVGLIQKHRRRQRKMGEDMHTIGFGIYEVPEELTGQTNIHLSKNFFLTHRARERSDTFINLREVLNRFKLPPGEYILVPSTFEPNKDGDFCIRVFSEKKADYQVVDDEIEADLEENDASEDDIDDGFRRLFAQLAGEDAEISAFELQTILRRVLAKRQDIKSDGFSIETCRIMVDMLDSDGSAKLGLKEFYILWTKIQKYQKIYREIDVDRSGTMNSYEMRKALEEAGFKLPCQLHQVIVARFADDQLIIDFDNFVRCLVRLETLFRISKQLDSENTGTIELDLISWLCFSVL

[4] = inhibitors of HIV Env-driven cell fusion, dose response, cherry-pick (AID 652057); assay type: functional, cell-based
[5] = inhibitors of clade B AD8 Env fusion, dose response, cell-based, cherry-pick (AID 652062); assay type: functional;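 also: luciferase signal from cell-cell fusion driven by HIV-1 clade B AD8 Env; potency is for inhibitors of fusion seen as a drop in luminescence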
[6] = ZM109 Env clade C HIV-1 fusion inhibitors, dose response, HeLa effector, CEM target cells, luciferase, cherry-pick (AID 652058); assay type: functional, cell-based
[7] = off-target signal loss in HeLa-CEM21 co-culture – HeLa F-luc CTL cells, cherry-picked, counter-screen for HIV-1 Env fusion inhibitor project, dose response (AID 652040); assay type: functional, cell-based;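 also: potency for signal decrease marking cytotoxic or nonspecific inhibition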
[8] = target: T2, Heat shock factor protein 1 (Mus musculus, UniProt P38532); assay: HSF1 potentiators in luciferase reporter cells, confirmation, cell-based, NIH3T3, luminescence, dose retest (AID 435004); assay type: functional;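 also: stress induced by proteasome inhibitor MG132 added 30 min after compound; luciferase reporter driven by HSF1 response element in NIH3T3 cells; actives raise luminescence as potentiators of the MG132 stress response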
T2 sequence (P38532 whole entry): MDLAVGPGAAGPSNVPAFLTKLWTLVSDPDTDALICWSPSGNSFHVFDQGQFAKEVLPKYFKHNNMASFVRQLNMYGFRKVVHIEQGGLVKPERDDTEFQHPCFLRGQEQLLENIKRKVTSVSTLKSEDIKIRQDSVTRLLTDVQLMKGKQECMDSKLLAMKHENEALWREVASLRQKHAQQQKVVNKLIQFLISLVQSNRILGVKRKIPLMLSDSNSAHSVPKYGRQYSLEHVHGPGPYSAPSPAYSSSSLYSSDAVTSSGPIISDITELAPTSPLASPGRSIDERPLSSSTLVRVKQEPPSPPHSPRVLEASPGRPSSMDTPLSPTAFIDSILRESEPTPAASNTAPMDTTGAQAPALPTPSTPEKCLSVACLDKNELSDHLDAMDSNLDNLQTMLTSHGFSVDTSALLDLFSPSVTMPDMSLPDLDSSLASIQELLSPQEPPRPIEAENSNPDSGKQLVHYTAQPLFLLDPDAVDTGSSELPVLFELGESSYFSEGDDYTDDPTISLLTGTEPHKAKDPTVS

[9] = target: T3, High affinity choline transporter 1 (Homo sapiens, UniProt Q9GZV3); assay: CHT inhibitors, dose response, cell-based, 5-point CRC, membrane potential dye (AID 504840); assay type: functional
T3 sequence (Q9GZV3 whole entry): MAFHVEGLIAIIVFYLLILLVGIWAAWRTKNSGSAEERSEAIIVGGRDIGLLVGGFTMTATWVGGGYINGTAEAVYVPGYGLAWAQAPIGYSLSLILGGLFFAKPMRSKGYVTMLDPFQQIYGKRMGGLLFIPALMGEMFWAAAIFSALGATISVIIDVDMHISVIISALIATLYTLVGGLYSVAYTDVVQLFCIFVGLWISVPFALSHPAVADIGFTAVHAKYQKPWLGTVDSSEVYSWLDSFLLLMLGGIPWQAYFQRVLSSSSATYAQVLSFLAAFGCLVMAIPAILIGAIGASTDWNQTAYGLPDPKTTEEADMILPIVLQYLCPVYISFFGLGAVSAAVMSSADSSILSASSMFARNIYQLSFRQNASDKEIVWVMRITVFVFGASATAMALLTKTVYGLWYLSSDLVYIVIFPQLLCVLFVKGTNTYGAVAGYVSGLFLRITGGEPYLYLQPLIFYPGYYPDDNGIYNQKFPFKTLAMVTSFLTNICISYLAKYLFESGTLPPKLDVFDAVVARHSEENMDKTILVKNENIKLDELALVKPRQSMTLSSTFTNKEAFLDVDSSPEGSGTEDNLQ

BJ [10] = assay: cytotoxicity toward BJ-TERT fibroblasts, dose response, cell-based, RAS-independent, luminescence (AID 1933); assay type: functional; details: Homo sapiens
BJ [11] = assay: cells; assay type: functional, cell-based; details: Homo sapiens
[12] = cytotoxicity toward DRD oncogenic fibroblasts, dose response, cell-based, non-viral oncogenic, luminescence (AID 1934); assay type: functional; details: Homo sapiens
BJ [13] = assay: cytotoxicity toward BJ-TERT-LT-ST fibroblasts, dose response, cell-based, RAS-independent, luminescence (AID 1935); assay type: functional; details: Homo sapiens;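 also: BJ fibroblasts immortalized with TERT plus LT and ST oncogenes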
[14] = target: T4, Corticotropin-releasing factor receptor 2/Corticotropin-releasing factor-binding protein (Homo sapiens, UniProt P24387+Q13324); assay: activators of CRF receptor 2 with binding protein – uHTS hits, confirmation (AID 602473); assay type: functional; details: read-out: EC50_Mean
T4 sequence (Q13324 whole entry): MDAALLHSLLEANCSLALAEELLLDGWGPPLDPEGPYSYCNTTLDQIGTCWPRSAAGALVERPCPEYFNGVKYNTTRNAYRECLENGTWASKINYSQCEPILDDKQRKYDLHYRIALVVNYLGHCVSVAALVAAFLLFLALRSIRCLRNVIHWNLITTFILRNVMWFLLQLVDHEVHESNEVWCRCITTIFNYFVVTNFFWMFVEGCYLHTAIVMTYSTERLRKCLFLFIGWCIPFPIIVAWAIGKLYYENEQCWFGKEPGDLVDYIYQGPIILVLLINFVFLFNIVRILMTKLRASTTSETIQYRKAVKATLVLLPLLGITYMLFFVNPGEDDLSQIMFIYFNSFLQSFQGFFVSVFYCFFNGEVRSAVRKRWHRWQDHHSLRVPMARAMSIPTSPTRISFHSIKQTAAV
T4 sequence (P24387 whole entry): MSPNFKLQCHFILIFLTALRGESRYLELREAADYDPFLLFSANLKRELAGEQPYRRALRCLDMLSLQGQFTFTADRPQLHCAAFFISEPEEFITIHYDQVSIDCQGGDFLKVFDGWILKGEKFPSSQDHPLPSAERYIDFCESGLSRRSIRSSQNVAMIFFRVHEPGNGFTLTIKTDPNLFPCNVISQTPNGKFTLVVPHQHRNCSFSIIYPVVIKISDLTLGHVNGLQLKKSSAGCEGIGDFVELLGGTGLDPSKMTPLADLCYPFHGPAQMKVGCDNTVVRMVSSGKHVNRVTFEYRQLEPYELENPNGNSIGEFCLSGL

[15] = target: T5, Ubiquitin-conjugating enzyme E2 N (Homo sapiens, UniProt P61088); assay type: functional;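 also: Dose-response confirmation in a TR-FRET assay detecting UBC13-driven polyubiquitin chain formation, inhibition measured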
T5 sequence (P61088 whole entry): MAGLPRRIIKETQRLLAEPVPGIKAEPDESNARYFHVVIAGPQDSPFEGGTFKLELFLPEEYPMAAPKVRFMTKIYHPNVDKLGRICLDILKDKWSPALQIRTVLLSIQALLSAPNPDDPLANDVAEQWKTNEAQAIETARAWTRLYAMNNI

H9c2 = assay: cells; assay type: functional, cell-based; details: Rattus norvegicus, H9c2, Myocardium;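 also: confirmatory concentration-response retest of ultra-high-throughput screening hits for modulation of myocardial damage; cell death induced by hydrogen peroxide oxidative stress; compound pretreatment for 60 min then peroxide exposure for 2 h; potency is for protecting the cells against peroxide damage rather than for killing them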
P388 = assay: cells; assay type: functional; details: Mus musculus
SN12K1 = assay: cells; assay type: functional; details: Homo sapiens
P388/ADR = assay: cells; assay type: functional; details: Mus musculus
[16] = P. falciparum Dd2 growth inhibitors, dose response, SYBR Green, cherry-picked samples (AID 1159567); assay type: functional, cell-based
INS1 = assay: beta cell apoptosis inhibitors, cytokine rescue, dose response, luminescence, retest (AID 449756); assay type: functional, cell-based; details: Rattus norvegicus;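 also: cell death triggered by IL-1 beta plus TNF-alpha plus IFN-gamma mixture; protective hits raise ATP signal compared with cytokine alone wells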

Chain of Glyceraldehyde-3-phosphate dehydrogenase (P04406 whole entry): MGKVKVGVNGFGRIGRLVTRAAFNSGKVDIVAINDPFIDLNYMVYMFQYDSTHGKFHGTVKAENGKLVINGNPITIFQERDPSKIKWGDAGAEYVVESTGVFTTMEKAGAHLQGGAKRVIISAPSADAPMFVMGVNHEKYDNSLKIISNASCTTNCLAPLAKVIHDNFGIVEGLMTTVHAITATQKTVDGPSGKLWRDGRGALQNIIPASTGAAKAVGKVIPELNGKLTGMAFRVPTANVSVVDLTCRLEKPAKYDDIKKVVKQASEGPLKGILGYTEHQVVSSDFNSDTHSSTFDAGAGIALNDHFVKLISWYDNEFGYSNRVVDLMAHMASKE

SMILES: Cc1cccc(N2C(=O)C(Cl)=C(N3CCN(c4ncccn4)CC3)C2=O)c1
- IC50 [1]: > 50 µM (inconclusive)

SMILES: O=C(CCCN1C(=O)/C(=C/c2ccccc2Cl)SC1=S)NNC(=O)c1ccncc1
- IC50 [2]: > 80 µM (inactive)

SMILES: Nc1c(Cl)cc2c(c1Oc1ccccc1)C(=O)c1ccccc1C2=O
- IC50 [3]: 2.46 µM (not active)
- AC50 [4]: 11.2 µM (active)
- AC50 [5]: 16.4 µM (active)
- AC50 [6]: 14.3 µM (active)
- AC50 [7]: 11.2 µM (active)

SMILES: Cc1nn(C(C)(C)C)c(OC(=O)c2ccc(Br)o2)c1Sc1ccccc1
- IC50 [2]: > 80 µM (inactive)

SMILES: CC(C)CNS(=O)(=O)c1ccc(CCC(=O)N2CCN(Cc3ccc4c(c3)OCO4)CC2)cc1
- AC50 [5]: 27.2 µM (active)
- AC50 [6]: 12.1 µM (active)

SMILES: CC(C)Nc1nc(Cl)nc(N(C#N)CN2C(=O)c3ccccc3C2=O)n1
- EC50 [8]: 27.9 µM (active)
- IC50 [9]: 1.58 µM (active)
- EC50 (BJ [10]): 10.1 µM (active)
- EC50 (BJ [11]): 16.2 µM (active)
- EC50 [12]: 17.9 µM (active)
- EC50 (BJ [13]): > 150 µM (inconclusive)

SMILES: CS(=O)(=O)N(Cc1ccc(Cl)cc1)c1ccc(C(=O)NCCSc2ccccn2)cc1
- AC50 [4]: 5.5 µM (active)
- AC50 [5]: 6.23 µM (active)
- EC50 [14]: > 53 µM (inactive)
- AC50 [6]: 52.2 µM (active)
- AC50 [7]: 18.6 µM (active)

SMILES: C[C@@H]1CN(C2=C(Cl)C(=O)N(c3cccc(C(F)(F)F)c3)C2=O)CCN1
- IC50 [1]: > 50 µM (inconclusive)

SMILES: O=C(NCC1CCN(Cc2ccc(F)cc2)CC1)C1CCCN(c2ncnc3c2nc2n3CCCCC2)C1 (stereo not drawn)
- IC50 [15]: > 20 µM (inactive)

SMILES: COc1ccc(NC(=O)c2cc(-c3ccccn3)nc3ccccc23)cc1S(=O)(=O)N(C)C
- IC50 (H9c2): > 79 µM (inactive)
- IC50 [2]: > 80 µM (inactive)

SMILES: C[C@@]12C(=O)N(Cc3ccc(F)cc3)CC(=O)N1[C@H]1c3cc(Cl)ccc3OC[C@@H]1[C@@H]2c1ccccc1
- AC50 [4]: 5.93 µM (active)
- AC50 [6]: 8.91 µM (active)
- AC50 [7]: 7.95 µM (active)

SMILES: COCCn1nnnc1CN(CCc1ccccc1)Cc1cc2cc(OC)ccc2nc1O
- AC50 [4]: 5.69 µM (active)
- IC50 (H9c2): 16.1 µM (active)
- AC50 [5]: 1.48 µM (active)
- AC50 [6]: 5.58 µM (active)
- AC50 [7]: 26.9 µM (active)

SMILES: CN(C)CCNC(=O)c1cccc2nc(-c3ccccc3)oc12
- GI50 (P388): 4.34 µM (inactive)
- GI50 (SN12K1): 22.8 µM (inactive)
- GI50 (P388/ADR): 8.63 µM (inactive)

SMILES: COc1ccc(/C=N\NC(=O)c2c(C)nc3ccc(Br)cn23)cc1
- IC50 (H9c2): 12.1 µM (active)
- EC50 (BJ [10]): 3.13 µM (active)
- EC50 (BJ [11]): 2.71 µM (active)
- EC50 [12]: 2.9 µM (inconclusive)
- EC50 (BJ [13]): 2.67 µM (inconclusive)

SMILES: Cc1ccc(C(=O)Nc2ncn(C3CC(O)C(CO)O3)c(=O)n2)cc1 (stereo not drawn)
- GI50 (P388): 5.26 µM (inactive)
- GI50 (SN12K1): > 100 µM (inactive)
- GI50 (P388/ADR): 3.69 µM (inactive)

SMILES: CC1(C)CC2(CC(C)(C)N1O)NC(=O)OC2=O
- GI50 (P388): 60.7 µM (inactive)
- GI50 (SN12K1): > 100 µM (inactive)
- GI50 (P388/ADR): 4.47 µM (inactive)

SMILES: CC[C@@]1(O)C[C@H](OC2CC(N(C)C)C(OC3CC(O)C(OC4CC(O)C(O)C(C)O4)C(C)O3)C(C)O2)c2c(cc3c(c2O)C(=O)c2c(O)ccc(O)c2C3=O)[C@H]1C(=O)OC (stereo partly drawn)
- GI50 (P388): 0.00693 µM (active)
- GI50 (SN12K1): 0.00695 µM (active)
- GI50 (P388/ADR): 0.713 µM (active)

SMILES: CC(=O)OC1CC2(O)C(CCC3(C)C(c4ccc(=O)oc4)CCC32O)C2(C)CCC(O)C=C12 (stereo not drawn)
- GI50 (P388): 4.37 µM (inactive)
- GI50 (SN12K1): 0.0196 µM (active)
- GI50 (P388/ADR): 7.26 µM (inactive)

SMILES: COc1ccccc1/C=N/N1C(=O)C(CC(=O)Nc2ccc([N+](=O)[O-])cc2OC)S/C1=N\c1cccc(C)c1C (stereo not drawn)
- EC50 (BJ [10]): 10.6 µM (active)
- EC50 (BJ [11]): 22.9 µM (active)
- EC50 [12]: 4.24 µM (active)
- EC50 (BJ [13]): 14.9 µM (inconclusive)

SMILES: CC(C)(O)C#Cc1cccc(-c2nc(C(=O)N[C@@H]3CCN(Cc4ccccc4)C3)cc3c2[C@H](CCO)N([S+]([O-])C(C)(C)C)C3)c1 (stereo partly drawn)
- AC50 [16]: 5.86 µM (active)

SMILES: N=c1c2c(n(Cc3ccc(Cl)cc3Cl)c3c1CCC3)CCCC2
- AC50 (INS1): 3.58 µM (active)
- IC50 [2]: > 80 µM (inactive)

SMILES: CN(CO)c1nc(N(C)CO)nc(N(C)CO)n1 [TRIMELAMOL]
- GI50 (P388): 6.15 µM (inactive)
- GI50 (SN12K1): 4.98 µM (inactive)
- GI50 (P388/ADR): 16.3 µM (inactive)
